Measurements as given in patent publication US5877030A, “Process for creating molecular diversity and novel protease inhibitors produced thereby” (priority 1995, dated 1999).

Legend:
[1] = rat model; Sobajima et al.; cited from earlier work
[2] = biological target: T1, trypsin (Bos taurus, UniProt P00760); assay: Trypsin inhibitor assay (trypsin-catalyzed hydrolysis of BAPA, absorbance at 410 nm), iterative screening of libraries; format: biochemical; settings: comparison in words
T1 sequence (P00760 24-246): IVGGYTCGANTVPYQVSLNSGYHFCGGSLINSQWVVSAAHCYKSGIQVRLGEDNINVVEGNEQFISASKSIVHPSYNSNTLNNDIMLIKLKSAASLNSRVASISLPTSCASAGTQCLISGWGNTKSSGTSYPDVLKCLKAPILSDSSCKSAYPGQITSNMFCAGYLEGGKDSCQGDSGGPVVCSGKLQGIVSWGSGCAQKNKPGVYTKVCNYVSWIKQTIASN
Protocol: Each sub-library 1A-1F was tested for its ability to inhibit trypsin activity and the percent trypsin activity was correlated to the specific tool molecule group (see Table 3) that had been omitted during synthesis of the sub-library being assayed.

[3] = tested on: thrombin; assay: Specificity against other proteases such as thrombin (initial experiments); format: biochemical
[4] = biological target: T1, trypsin; assay: Ki determination on trypsin (BAPA substrate, Michaelis-Menten / reciprocal plots); format: biochemical; settings: for Ki: preliminary investigations
Protocol: The rate of the trypsin catalyzed reaction was determined by monitoring the increase in absorbance at 410 nm over time. In all measurements 5% (v/v) of dimethylsulfoxide (DMSO) was added to solubilize the libraries. For a typical assay, 50 μL of a library solution in DMSO and 10 μL of the trypsin stock solution (2.5 mg trypsin in 25 mL 0.001M HCl) were added to 5 mL of buffer (0.5M Tris-HCl, 0.16M CaCl21 pH 8.2) at 25° C. In regard to FIG. 19, the library solutions used for Charts A and B contained 2.5 mg in 50 μL DMSO; the library solution for Chart C contained 1 mg in 50 AL DMSO and the library solution for Chart D contained 0.5 mg in 50 μL DMSO.
After incubating for 10 min., the cloudy mixture was centrifuged, 0.4 mL of the clear supernatant was removed and diluted with 400 μL of buffer in a disposable 1.5 mL UV cuvette. Then, 50 μL of the BAPA (defined below) stock solution (50 mg BAPA in 5 mL DMSO) was added and the increase in absorbance at 410 nm was monitored. The trypsin activity was compared to a reference cuvette without added library material (B).
Methods for determining the Ki of an enzyme inhibitor would be known to those of ordinary skill in the art. (See also "Enzyme Kinetics & Behavior, Analysis of Rapid Equilibrium, and Steady State Enzyme Systems", ed. Segel, John Wiley & Sons, Inc., N.Y., N.Y. (1993), the contents of which are incorporated herein by reference.) A summary of the procedure used to obtain the Ki value for compound of Formula V.

Structure (SMILES)	treatment of severe acute pancreatitis [1]	activity relative to structural isomer Formula VI [2]	interference with other proteases, such as thrombin [3]	mode of inhibition of trypsin ([4]; 1/velocity vs. 1/(substrate concentration), five inhibitor concentrations 1×10^-6 M to 1×10^-4 M)	Ki ([4]; 'in the 10 μM range') [µM]	Ki ([4]; trypsin 7.4×10^-8 M, BAPA 2×10^-4 M to 7×10^-3 M, inhibitor 1×10^-6 M to 1×10^-4 M) [µM]
CS(=O)(=O)O.N=C(N)Nc1ccc(C(=O)Oc2ccc(SCCN3C(=O)CCC3=O)cc2)cc1 [4-(2-succinimidoethylthio)-phenyl 4-guanidinobenzoate methane sulfonate]	treating severe acute pancreatitis	–	–	–	–	–
CC[C@H](C)[C@H](NC(=O)c1cc(C(=O)N2CCC[C@H]2C(=O)O)cc2c1Oc1c(C(=O)N[C@@H](CCCCN)C(=O)OC)cc(C(=O)N[C@H](C(=O)O)C(C)C)cc1C2(C)C)C(=O)O [Formula V]	–	significantly more active than its structural isomer Formula VI	does not interfere with other proteases, such as thrombin	competitive inhibitor of trypsin	~10	~9
